From ChEMBL document CHEMBL1150915, “Dehydroradiosumin, a trypsin inhibitor from the cyanobacterium Anabaena cylindrica” (J Nat Prod, 1998)
pIC50: −log10 of the molar value. Converted amounts (≈) assume the structure as drawn. The source made the active and inactive calls. No cut-off for these calls is given here.

Assays:
[1] = Inhibition of elastase at 100 ug/mL
[2] = Inhibition of chymotrypsin at 100 ug/mL
[3] = biological target: Prothrombin (Homo sapiens) (UniProt P00734); test: Inhibition of thrombin at 100 ug/mL
Plasminogen = Plasminogen (Homo sapiens, UniProt P00747); test: Inhibition of plasmin
Sequence of Plasminogen (P00747 97-580 limits assumed): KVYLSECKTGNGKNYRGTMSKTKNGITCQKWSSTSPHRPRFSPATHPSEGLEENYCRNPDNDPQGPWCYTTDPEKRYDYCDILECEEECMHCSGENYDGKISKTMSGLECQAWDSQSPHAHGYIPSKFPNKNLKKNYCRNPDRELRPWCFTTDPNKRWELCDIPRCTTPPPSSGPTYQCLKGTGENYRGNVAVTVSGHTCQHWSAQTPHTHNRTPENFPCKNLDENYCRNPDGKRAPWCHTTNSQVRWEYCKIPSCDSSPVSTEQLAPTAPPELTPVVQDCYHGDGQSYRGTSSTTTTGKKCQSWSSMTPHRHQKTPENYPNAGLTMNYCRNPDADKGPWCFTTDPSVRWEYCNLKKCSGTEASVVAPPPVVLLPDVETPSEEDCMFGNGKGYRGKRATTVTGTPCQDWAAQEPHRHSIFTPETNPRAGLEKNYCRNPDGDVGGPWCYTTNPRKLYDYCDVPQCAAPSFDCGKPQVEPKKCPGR
Sequence of Plasminogen (P00747 581-810 limits assumed): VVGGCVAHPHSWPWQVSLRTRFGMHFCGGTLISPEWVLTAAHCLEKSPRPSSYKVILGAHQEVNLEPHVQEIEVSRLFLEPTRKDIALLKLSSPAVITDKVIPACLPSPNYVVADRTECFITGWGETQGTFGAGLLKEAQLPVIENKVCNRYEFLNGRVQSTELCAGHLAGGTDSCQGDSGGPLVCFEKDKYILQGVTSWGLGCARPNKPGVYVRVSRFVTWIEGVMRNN

[4] = Inhibition of trypsin
Papain (Carica papaya) = biological target: T1, Papain (Carica papaya) (UniProt P00784); test: Inhibition of Carica papaya papain at 100 ug/mL
T1 sequence (whole entry): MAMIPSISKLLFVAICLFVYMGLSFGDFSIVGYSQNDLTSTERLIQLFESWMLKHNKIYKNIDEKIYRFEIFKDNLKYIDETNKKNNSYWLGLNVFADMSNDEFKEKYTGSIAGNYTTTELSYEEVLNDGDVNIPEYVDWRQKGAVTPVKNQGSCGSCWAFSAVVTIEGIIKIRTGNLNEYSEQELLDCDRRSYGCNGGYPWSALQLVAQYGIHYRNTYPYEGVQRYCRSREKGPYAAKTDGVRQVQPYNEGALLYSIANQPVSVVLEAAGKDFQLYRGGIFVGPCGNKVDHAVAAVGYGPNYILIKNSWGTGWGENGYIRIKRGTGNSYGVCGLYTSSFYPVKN

Activity [1]: inactive
Activity [2]: inactive
Activity [3]: inactive
pIC50 (Plasminogen): 3.68
IC50 [4]: 0.1 µg/mL (≈ 0.232 µM)
Activity (Papain (Carica papaya)): inactive
SMILES: CC(=O)N[C@@H](/C=C1/C=C[C@H](N)CC1)C(=O)N[C@@H](/C=C1/C=C[C@H](NC(C)=O)CC1)C(=O)O [DEHYDRORADIOSUMIN]
